Row | SMILES | melting point [°C]
1 | O=C(O)CCCCN(CCc1cc(-c2ccc(F)cc2F)ccc1OCc1ccc(-c2ccc(C(F)(F)F)cc2)cc1)Cc1ccc(C(=O)O)cc1 [Example 2, 4-({(4-Carboxybutyl)[2-(2′,4′-difluoro-4-{[4′-(trifluoromethyl)-1,1′-biphenyl-4-yl]methoxy}-1,1′-biphenyl-3-yl)ethyl]amino}methyl)benzoic acid] | > 240
2 | O=C(O)CCCCN(CCc1cc(-c2ccc(F)cc2F)ccc1OCc1ccc(C2CCCCC2)cc1)Cc1ccc(C(=O)O)cc1 [Example 1, 4-{[(4-Carboxybutyl)(2-{4-[(4-cyclohexylbenzyl)oxy]-2′,4′-difluoro-1,1′-biphenyl-3-yl}ethyl)amino]methyl}benzoic acid] | > 240
